Laboratory results published in patent US8026240B2, “Octahydro-pyrrolo[3,4-b]pyrrole N-oxides” (Abbott Laboratories, priority 2007, dated 2011).

Biological target: T1, rat histamine-3 receptor (Rattus norvegicus, UniProt Q9QYN8)
T1 construct: expressed in transfected cells; host or cells: C6 or HEK293 cells
Test: histamine-3 receptor competition binding with [H3]-N-α-methylhistamine
Description: To determine the effectiveness of representative compounds of this invention as histamine-3 receptor ligands, the following tests were conducted according to previously described methods (see Arrang et al, “Histamine H3 Receptor Binding Sites in Rat Brain Membranes:Modulations by Guanine Nucleotides and Divalent Cations”, European Journal of Pharmacology, Vol. 188, pp. 219-227 (1990); Tedford et al., “Pharmacological Characterization of GT-2016, A Non-Thiourea-Containing Histamine H3 Receptor Antagonist: In Vitro and In Vivo Studies”, The Journal of Pharmacology and Experimental Therapeutics, Vol. 275, pp. 598-604 (1995); Leurs et al., “Histamine Homologues Discriminating Between Two Functional H3-Receptor Assays. Evidence for H3 Receptor”, Journal of Pharmacology and Experimental Therapeutics, Vol. 276, No. 3, pp. 1009-1015 (1996); and Cheng et al., “Relationship Between the Inhibition Constant (K1) and the Concentration of Inhibitor which Causes 50% Inhibition (150) of an Enzymatic Reaction”, Biochemical Pharmacology, Vol. 22., pp. 3099-3108 (1973)).
The rat histamine-3 receptor was cloned and expressed in cells, and competition binding assays carried out, according to methods previously described (see Esbenshade et al., “Pharmacological Properties of ABT-239 [4-(2-{2-[(2R)-2-Methylpyrrolidinyl ]ethyl}-benzofuran-5-yl)benzonitrile]: I. Potent and Selective Histamine H3 Receptor Antagonist with Drug-Like Properties”, Journal of Pharmacology and Experimental Therapeutics, Vol. 313, pp. 165-175, (2005); Esbenshade et al., “Pharmacological and Behavioral Properties of A-349821, a Selective and Potent Human Histamine H3 Receptor Antagonist”, Biochemical Pharmacology, Vol 68, pp. 933-945 (2004); Krueger et al., “G Protein-Dependent Pharmacology of Histamine H3 Receptor Ligands: Evidence for Heterogeneous Active State Receptor Conformations”, Journal of Pharmacology and Experimental Therapeutics, Vol. 314, pp. 271-281 (2005)). Membranes were prepared from C6 or HEK293 cells, expressing the rat histamine-3 receptor, by homogenization on ice in TE buffer (50 mM Tris-HCl buffer, pH 7.4, containing 5 mM EDTA), 1 mM benzamidine, 2 μg/ml aprotinin, 1 μg/ml leupeptin, and 1 μg/ml pepstatin. The homogenate was centrifuged at 40,000 g for 20 minutes at 4° C. […]
Membrane preparations were incubated with [H3]-N-α-methylhistamine (0.5-1.0 nM) in the presence or absence of increasing concentrations of ligands of formula (I) and formula (II) for histamine-3 receptor competition binding. […] Bound radiolabel was determined by liquid scintillation counting. For all of the radioligand competition binding assays, IC50 values and Hill slopes were determined by Hill transformation of the data and pKi values were determined by the Cheng-Prusoff equation.

[1] = compounds of formula (I), mean of 4 separate determinations

T1 sequence (Q9QYN8 whole entry): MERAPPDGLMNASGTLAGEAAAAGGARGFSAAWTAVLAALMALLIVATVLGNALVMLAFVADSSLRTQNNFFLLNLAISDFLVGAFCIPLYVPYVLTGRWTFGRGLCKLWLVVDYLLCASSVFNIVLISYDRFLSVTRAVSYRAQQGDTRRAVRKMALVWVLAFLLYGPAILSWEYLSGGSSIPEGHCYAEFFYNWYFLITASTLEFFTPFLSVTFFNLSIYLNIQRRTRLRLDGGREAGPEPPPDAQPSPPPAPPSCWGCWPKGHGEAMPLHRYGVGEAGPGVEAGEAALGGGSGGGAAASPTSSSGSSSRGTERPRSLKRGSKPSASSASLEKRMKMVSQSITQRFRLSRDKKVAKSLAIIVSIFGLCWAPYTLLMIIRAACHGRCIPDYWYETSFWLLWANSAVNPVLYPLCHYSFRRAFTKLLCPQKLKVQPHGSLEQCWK

SMILES: CN1C[C@H]2CCN(c3ccc(-c4ccc(-n5ncccc5=O)cc4)cc3)[C@H]2C1 [2-{4′-[(3aR,6aR)-5-methylhexahydropyrrolo[3,4-b]pyrrol-1(2H)-yl]-1,1′-biphenyl-4-yl}pyridazin-3(2H)-one]
- Ki (compounds of formula (II)): 8.2 nM

SMILES: C[N@@+]1([O-])C[C@H]2CCN(c3ccc(-c4ccc(-n5ncccc5=O)cc4)cc3)[C@H]2C1 (single isomer, unassigned)
- Ki [1]: > 5000 nM

SMILES: C[N@+]1([O-])C[C@H]2CCN(c3ccc(-c4ccc(-n5ncccc5=O)cc4)cc3)[C@H]2C1 (single isomer, unassigned)
- Ki [1]: 2240 nM

SMILES: CN1C[C@H]2CCN(c3ccc(-c4ccc(-n5ncccc5=O)nc4)cc3)[C@H]2C1 [2-(5-{4-[(3aR,6aR)-5-methylhexahydropyrrolo[3,4-b]pyrrol-1(2H)-yl]phenyl}pyridin-2-yl) pyridazin-3(2H)-one]
- Ki (compounds of formula (II)): 3.5 nM
